Results reported in paper PMC9298194, “Clinical Pharmacokinetics of Daprodustat: Results of an Absorption, Distribution, and Excretion Study With Intravenous Microtracer and Concomitant Oral Doses for Bioavailability Determination” (Clinical Pharmacology in Drug Development, 2021).
Values joined by “and” are separate entries in the source; they are usually repeats but may differ in a detail not shown here. Equal entries are not always repeated. Where two headings read alike, the source gives them in different places.

What was measured:
[1] = human; ref internal GSK reports; cited from earlier work
[2] = Metabolite load, hepatic extraction, fraction escaping gut metabolism and fraction absorbed analyses; type: in vivo, human
Method: To assess the extent of metabolism and absorption of daprodustat, the plasma PK parameters: metabolite load, fraction escaping metabolism by the gut wall (Fg), hepatic extraction (Eh), and fraction absorbed (Fabs) were calculated on the basis of equations found in Harrell et al.[18] All parameters for analysis have been conducted on plasma results (assuming a blood to plasma ratio of 1) but when appropriate, the actual human blood:plasma ratio of 1.23 (internal GSK reports) of daprodustat has been applied to specific parameters to aid interpretation. (1) HepaticExtraction:Eh(blood)=CLbtotal−CLbrenal/QH (2) Fractionescapinglivermetabolism:Fh=1−Eh(blood) (3) MetaboliteLoadTRA=totalradioactivity:MLroute=AUCTRAroute−AUCroute/AUCTRAroute (4) Fractionescapinggut:Fg=1−MLoral−MLIV/Fh (5) Fractionabsorbed:Fabs=Foral/Fh×Fg

[3] = ref GSK data on file; cited from earlier work
[4] = 39‐week study in monkeys; cited from earlier work
[5] = Plasma daprodustat pharmacokinetics in healthy male participants (6 mg oral tablet, 50 μg IV microtracer, 25 mg oral solution); type: in vivo, human; details: for AUC / tmax / Cmax / half-life: plasma daprodustat; for tmax: median (range); for Cmax: arithmetic mean (SD); for half-life: read-out: t½ (converted)
Method: On day 1 of treatment period 1, after an overnight fast of at least 8 hours, each participant took a single 6 mg oral dose of daprodustat; participants continued to fast for < 3 hours when a small amount of food was administered to stimulate bile release for the Entero‐Test. After ≈1 hour, participants received 50 μg of [^14C]‐GSK1278863 (≈4.63 kBq; 125 nCi) by IV infusion over 1 hour. Blood samples were collected for 144 hours after oral dosing (until day 7). Participants were discharged on study day 7 after completion of the 144‐hour sample collection. The Entero‐Test was swallowed 3.5 hours before the oral dose of daprodustat (while in the fasted state) and removed 3 hours after the oral dose (about 1 hour after completion of the IV infusion). About 1.5 hours before string withdrawal, a food cue was used to stimulate gallbladder emptying.
On day 1 of treatment period 2, after an overnight fast of at least 8 hours, each participant received 25 mg [^14C]‐GSK1278863 (≈2.31 MBq; 62.5 μCi) as an oral solution; participants continued to fast for 4 hours after dosing.[15] Blood, urine, and fecal samples were collected for a minimum of 144 hours (up to day 7) after dosing, depending on the amount of radioactivity excreted by each participant in excreta collected daily. Liquid scintillation counting (LSC) was performed on these excreta collections on an ongoing basis to assess recovery of the radioactivity dosed. Participants were discharged if ≥90% and <1% of the dose was excreted on both days 6 and 7.
As per standard practice for administration of radiolabeled drug, the IV and oral dosing solutions were analyzed for daprodustat via assessment of the radioactivity and through application of the predetermined specific activity. Whole blood samples were collected for measurement of each of the following: blood total radioactivity in period 2 and plasma total radioactivity in period 1, plasma concentrations of daprodustat, and the 6 predominant circulating metabolites in periods 1 and 2. Blood samples were collected at 1, 3, and 6 hours after dosing for blood assessments. Blood samples were collected for plasma assessments before dosing and at 0.50, 1, 1.25, 1.5, 2, 3, 4, 6, 8, 10, 12, 24, 36, 48, 72, 96, 120, and 144 hours after dosing.
Daprodustat and [^14C]‐GSK1278863 plasma concentrations were measured in treatment period 1: 6 mg daprodustat oral tablet, followed by a 1‐hour IV infusion of 50 μg [^14C]‐GSK1278863, started 1 hour after tablet administration, and in treatment period 2: 25 mg [^14C]‐GSK1278863 oral solution.
Plasma samples from periods 1 and 2 were analyzed for daprodustat and its 6 metabolites by PPD Laboratories using a validated analytical method based on protein precipitation, followed by high‐performance liquid chromatography with tandem mass spectrometric detection analysis, as described previously.[7], [8] Specifically, the lower limit of quantification (LLQ) for this study was 0.100 ng/mL using a 100 μL aliquot of ethylenediaminetetraacetic acid plasma for all 7 analytes. The higher limit of quantification was 100 ng/mL for all 7 analytes. The data accuracy (% bias range: −2.21 to −0.400 to 0.560‐5.85) and precision (% coefficient of variation of 3.99‐7.13) met acceptable limits as recommended by the US Food and Drug Administration in their bioanalytical method validation guidelines.[17] Final PK concentration data for period 1 after 1‐hour samples for daprodustat were further corrected to account for radiolabeled ^14C dose.
Plasma samples collected from period 1 were analyzed for [^14C]‐GSK1278863 by GSK using a validated analytical method, based on protein precipitation, followed by liquid chromatography–AMS analysis. The LLQ was 1.80 pg/mL, using a 600 μL aliquot of human plasma with a higher limit of quantification of 358.92 pg/mL. Accuracy for the 5 validation levels were between −9.2% and 2.2%, and precision was between 2.5% and 10.8%. […]

[6] = 6 mg tablet vs 50 μg IV dose (120-fold dose difference), period 1
[7] = 25 mg oral solution vs 6 mg oral tablet (4.17-fold dose difference)

Structure (SMILES): O=C(O)CNC(=O)C1C(=O)N(C2CCCCC2)C(=O)N(C2CCCCC2)C1=O [Daprodustat]
- blood:plasma ratio [1]: 1.23
- Eh (hepatic extraction) ([2]; [14C] IV infusion, fraction, adjusted with blood:plasma ratio of 1.23, mean (SD), n = 3): 0.181 (0.050)
- MLIV (plasma metabolite load) ([2]; [14C] IV infusion, mean (SD), n = 3): 0.623 (0.080)
- MLIV (plasma metabolite load) ([2]; [14C] IV infusion, mean (SD), n = 3, listed as daprodustat): ≈ 0.623 (0.080)
- Fabs (fraction absorbed) ([2]; [14C] oral solution, fraction, reduced to Foral/Fh, blood:plasma ratio 1.23, mean (SD), n = 3): 0.811 (0.134)
- Fg (fraction escaping metabolism by the gut wall) ([2]; [14C] oral solution, mean (SD), n = 3): > 1
- MLPO (plasma metabolite load) ([2]; [14C] oral solution, mean (SD), n = 6): ~0.584 (0.060)
- daprodustat absorbed across the gastrointestinal tract (Fabs) ([2]; following oral solution administration): ≈ 80% and 81% and ≈ 81%
- hepatic extraction ([2]; from blood CL, human liver blood flow of 87 L/h): ≈ 18% and 18%
- protein binding [3]: > 99%
- doses at which gastric erosions were observed [4]: ≥ 10 mg/kg/day
- no observed adverse effect level [4]: 3 mg/kg/day
- absolute bioavailability (oral F) ([5]; 6 mg oral tablet, based on AUC0‐inf): 66.1%
- fold difference in mean AUC0‐t, oral tablet vs IV [5, 6]: 75.0 fold
- fold difference in mean Cmax, oral tablet vs IV [5, 6]: 47.2 fold
- fold increase in total exposure (AUC0‐inf), solution vs tablet ([5]; 25 mg oral solution vs 6 mg oral tablet): 4.84 fold
- fold increase in mean AUC0‐t, solution vs tablet [5, 7]: 4.84 fold
- fold increase in mean Cmax, solution vs tablet [5, 7]: 5.86 fold
- Oral F (0‐inf) ([5]; absolute bioavailability, 6 mg oral tablet vs IV microtracer, fraction, mean (SD), n = 3): 0.661 (0.077)
- clearance ([5]; male, human, blood, 50 μg, translated from plasma CL after IV administration, read-out: blood CL (converted)): ~250 mL/min
- AUC ([5]; male, human, plasma, iv, 50 μg, [14C] 50 μg IV infusion, mean (SD), n = 3, read-out: AUC0‐inf): 2.71 ng·h/mL
- AUC ([5]; male, human, plasma, iv, 50 μg, [14C] 50 μg IV infusion, mean (SD), read-out: AUC0‐t): 2.68 ng·h/mL
- tmax ([5]; male, human, plasma, iv, 50 μg, [14C] 50 μg IV infusion, read-out: tmax): 1 h
- bioavailability ([5]; male, human, plasma, po, 6 mg, 6 mg oral tablet, based on AUC0‐inf, read-out: absolute bioavailability (oral F)): ~66%
- AUC ([5]; male, human, plasma, po, 6 mg, 6 mg oral tablet, mean (SD), read-out: AUC0‐inf): 202 ng·h/mL
- AUC ([5]; male, human, plasma, po, 6 mg, 6 mg oral tablet, mean (SD), read-out: AUC0‐t): 201 ng·h/mL
- tmax ([5]; male, human, plasma, po, 6 mg, 6 mg oral tablet, read-out: tmax): ~2 h
- AUC ([5]; male, human, plasma, po, 25 mg, [14C] 25 mg oral solution, mean (SD), read-out: AUC0‐inf): 974 ng·h/mL
- AUC ([5]; male, human, plasma, po, 25 mg, [14C] 25 mg oral solution, mean (SD), read-out: AUC0‐t): 972 ng·h/mL
- tmax ([5]; male, human, plasma, po, 25 mg, [14C] 25 mg oral solution, read-out: tmax): ~0.5 h
- Vd ([5]; male, human, plasma, [14C] 50 μg IV infusion, mean (SD), n = 3, read-out: Vss): 14.6 L
- clearance ([5]; male, human, plasma clearance, [14C] 50 μg IV infusion, mean (SD), n = 3, read-out: CL (converted)): 322 mL/min
- Cmax ([5]; male, human, 6 mg oral tablet): 97.3 ng/mL
- half-life ([5]; male, human, 6 mg oral tablet, mean (SD)): 1.92 h
- Cmax ([5]; male, human, [14C] 50 μg IV infusion over 1 h): 2.06 ng/mL
- half-life ([5]; male, human, [14C] 50 μg IV infusion, mean (SD), n = 3): 2.07 h
- Cmax ([5]; male, human, [14C] 25 mg oral solution): 570 ng/mL
- half-life ([5]; male, human, [14C] 25 mg oral solution, mean (SD)): 2.6 h
- tmax ([5]; 6 mg oral tablet): 2.12 (1.42−4.00) h
- tmax ([5]; [14C] 50 μg IV infusion): 0.983 (0.983−0.983) h
- tmax ([5]; [14C] 25 mg oral solution): 0.500 (0.500−0.517) h
